Test results from patent US20200207759A1, “NEW PROPANAMINE DERIVATIVES FOR TREATING PAIN AND PAIN RELATED CONDITIONS” (ESTEVE PHARMACEUTICALS, S.A., priority 2017, published 2020).

What was measured:
[1] = molecular target: Human α2δ-1 subunit of Cav2.2 calcium channel (Homo sapiens, UniProt P54289); assay: Binding assay to human α2δ-1 subunit of Cav2.2 calcium channel, [3H]-Gabapentin; conditions: human α2δ-1 enriched membranes, 15 nM [3H]-Gabapentin; read-out: Ki (nM) alpha2delta Hum
Protocol: Binding Assay to Human α2δ-1 Subunit of Cav2.2 Calcium Channel.
Human α2δ-1 enriched membranes (2.5 μg) were incubated with 15 nM of radiolabeled [3H]-Gabapentin in assay buffer containing Hepes-KOH 10 mM, pH 7.4.
(§1) NSB (non specific binding) was measured by adding 10 μM pregabalin. After 60 min incubation at 27° C., binding reaction was terminated by filtering through Multiscreen GF/C (Millipore) presoaked in 0.5% polyethyleneimine in Vacuum Manifold Station, followed by 3 washes with ice-cold filtration buffer containing 50 mM Tris-HCl, pH 7.4.
Filter plates were dried at 60° C. for 1 hour and 30 μl of scintillation cocktail were added to each well before radioactivity reading.
Readings were performed in a Trilux 1450 Microbeta radioactive counter (Perkin Elmer).

[2] = molecular target: Human norepinephrine transporter (NET) (Homo sapiens, UniProt P23975); assay: Binding assay to human norepinephrine transporter (NET), [3H]-Nisoxetin; conditions: human NET enriched membranes, 5 nM [3H]-Nisoxetin; read-out: Ki (nM) NET Hum
Protocol: Binding Assay to Human Norepinephrine Transporter (NET).
Human norepinephrine transporter (NET) enriched membranes (5 μg) were incubated with 5 nM of radiolabeled [3H]-Nisoxetin in assay buffer containing 50 mM Tris-HCl, 120 mM NaCl, 5 mM KCl, pH 7.4.
as §1, with “1 μM.” for “10 μM pregabalin.”, “4°” for “27°”, “Tris-HCl, 0.9% NaCl,” for “Tris-HCl,”, “7.4. Filter plates were dried at 60° C. for 1 hour and 30 μl of scintillation cocktail were added to each well before radioactivity reading.” for “7.4.”

Sequence of Human α2δ-1 subunit of Cav2.2 calcium channel (P54289 25-1103): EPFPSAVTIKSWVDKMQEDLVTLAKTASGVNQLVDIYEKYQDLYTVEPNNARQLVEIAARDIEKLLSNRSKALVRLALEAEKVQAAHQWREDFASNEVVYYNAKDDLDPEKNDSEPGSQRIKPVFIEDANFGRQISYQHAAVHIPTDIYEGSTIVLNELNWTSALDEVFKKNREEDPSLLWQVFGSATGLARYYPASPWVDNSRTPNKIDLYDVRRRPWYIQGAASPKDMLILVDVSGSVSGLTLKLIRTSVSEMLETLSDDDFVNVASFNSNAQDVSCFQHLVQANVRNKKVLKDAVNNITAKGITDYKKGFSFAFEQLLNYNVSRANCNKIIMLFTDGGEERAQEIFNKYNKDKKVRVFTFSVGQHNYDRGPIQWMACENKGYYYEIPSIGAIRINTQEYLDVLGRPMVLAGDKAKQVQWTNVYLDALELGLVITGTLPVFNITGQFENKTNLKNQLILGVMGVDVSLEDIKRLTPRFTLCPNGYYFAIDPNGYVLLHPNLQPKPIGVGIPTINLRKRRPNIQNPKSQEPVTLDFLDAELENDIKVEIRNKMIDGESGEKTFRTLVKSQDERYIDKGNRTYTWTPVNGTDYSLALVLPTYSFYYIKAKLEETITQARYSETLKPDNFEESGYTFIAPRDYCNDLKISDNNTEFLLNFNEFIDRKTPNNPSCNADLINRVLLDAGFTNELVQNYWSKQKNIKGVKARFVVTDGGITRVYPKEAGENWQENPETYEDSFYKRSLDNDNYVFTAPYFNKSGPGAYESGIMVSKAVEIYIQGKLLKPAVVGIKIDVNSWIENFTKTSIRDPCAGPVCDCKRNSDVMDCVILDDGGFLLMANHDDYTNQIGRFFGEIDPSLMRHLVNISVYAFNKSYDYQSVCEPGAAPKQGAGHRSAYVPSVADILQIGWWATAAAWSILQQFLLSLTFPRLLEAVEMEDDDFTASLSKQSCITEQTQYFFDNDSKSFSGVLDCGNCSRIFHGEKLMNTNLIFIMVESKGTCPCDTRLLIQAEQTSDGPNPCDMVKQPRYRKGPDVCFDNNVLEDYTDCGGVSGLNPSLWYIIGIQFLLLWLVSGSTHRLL
Sequence of Human norepinephrine transporter (NET) (P23975 whole entry): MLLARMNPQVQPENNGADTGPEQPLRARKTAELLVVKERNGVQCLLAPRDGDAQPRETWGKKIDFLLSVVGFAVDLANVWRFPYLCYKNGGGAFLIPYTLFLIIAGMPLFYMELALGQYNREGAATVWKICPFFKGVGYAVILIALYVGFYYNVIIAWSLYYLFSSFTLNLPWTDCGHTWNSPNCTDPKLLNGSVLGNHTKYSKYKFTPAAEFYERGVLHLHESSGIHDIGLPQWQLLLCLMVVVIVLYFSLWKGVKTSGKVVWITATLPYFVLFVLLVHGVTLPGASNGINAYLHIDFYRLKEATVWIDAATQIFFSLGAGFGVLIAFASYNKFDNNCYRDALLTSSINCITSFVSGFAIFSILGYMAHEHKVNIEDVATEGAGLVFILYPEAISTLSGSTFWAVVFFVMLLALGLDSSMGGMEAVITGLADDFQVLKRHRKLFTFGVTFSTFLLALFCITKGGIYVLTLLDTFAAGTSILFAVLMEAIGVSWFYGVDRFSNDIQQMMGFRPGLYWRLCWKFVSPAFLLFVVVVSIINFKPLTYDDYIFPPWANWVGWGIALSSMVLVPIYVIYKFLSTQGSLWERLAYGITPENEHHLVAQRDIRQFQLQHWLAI

Structure (SMILES) | Ki [1] [nM] | Ki [2] [nM]
CNCC[C@H](c1cccs1)N1CC(C)(C)c2ncccc21 [Example 20, (R)-3-(3,3-Dimethyl-2,3-dihydro-1H-pyrrolo[3,2-b]pyridin-1-yl)-N-methyl-3-(thiophen-2-yl)propan-1-amine] | 100 to 500 | > 1000
CNCC[C@@H](c1cccs1)N1CC(C)(C)c2ncccc21 [Example 21, (S)-3-(3,3-dimethyl-2,3-dihydro-1H-pyrrolo[3,2-b]pyridin-1-yl)-N-methyl-3-(thiophen-2-yl)propan-1-amine] | 500 to 3000 | 100 to 500
CNCC[C@H](c1ccsc1)N1CCc2ncccc21 [Example 22, (R)-3-(2,3-Dihydro-1H-pyrrolo[3,2-b]pyridin-1-yl)-N-methyl-3-(thiophen-3-yl)propan-1-amine] | 500 to 3000 | > 1000
CNCC[C@@H](c1ccsc1)N1CCc2ncccc21 [Example 23, (S)-3-(2,3-Dihydro-1H-pyrrolo[3,2-b]pyridin-1-yl)-N-methyl-3-(thiophen-3-yl)propan-1-amine] | 100 to 500 | 100 to 500
CNCC[C@H](c1ccsc1)N1CC(C)(C)c2ncccc21 [Example 24, (R)-3-(3,3-Dimethyl-2,3-dihydro-1H-pyrrolo[3,2-b]pyridin-1-yl)-N-methyl-3-(thiophen-3-yl)propan-1-amine] | 100 to 500 | > 1000
CNCC[C@@H](c1ccsc1)N1CC(C)(C)c2ncccc21 [Example 25, (S)-3-(3,3-Dimethyl-2,3-dihydro-1H-pyrrolo[3,2-b]pyridin-1-yl)-N-methyl-3-(thiophen-3-yl)propan-1-amine] | 500 to 3000 | 100 to 500
CNCC[C@H](c1cccs1)N1CCc2ncc(F)cc21 [Example 26, (R)-3-(6-Fluoro-2,3-dihydro-1H-pyrrolo[3,2-b]pyridin-1-yl)-N-methyl-3-(thiophen-2-yl)propan-1-amine] | 100 to 500 | > 1000
CNCC[C@@H](c1cccs1)N1CCc2ncc(F)cc21 [Example 27, (S)-3-(6-Fluoro-2,3-dihydro-1H-pyrrolo[3,2-b]pyridin-1-yl)-N-methyl-3-(thiophen-2-yl)propan-1-amine] | 100 to 500 | > 1000
CNCC[C@H](c1ccsc1)N1CCc2ncc(F)cc21 [Example 28, (R)-3-(6-Fluoro-2,3-dihydro-1H-pyrrolo[3,2-b]pyridin-1-yl)-N-methyl-3-(thiophen-3-yl)propan-1-amine] | 100 to 500 | 500 to 1000
CNCC[C@@H](c1ccsc1)N1CCc2ncc(F)cc21 [Example 29, (S)-3-(6-Fluoro-2,3-dihydro-1H-pyrrolo[3,2-b]pyridin-1-yl)-N-methyl-3-(thiophen-3-yl)propan-1-amine] | 100 to 500 | 500 to 1000
CNCC[C@H](c1cccs1)N1CCc2ncc(OC)cc21 [Example 30, (R)-3-(6-Methoxy-2,3-dihydro-1H-pyrrolo[3,2-b]pyridin-1-yl)-N-methyl-3-(thiophen-2-yl)propan-1-amine] | 100 to 500 | > 1000
CNCC[C@@H](c1cccs1)N1CCc2ncc(OC)cc21 [Example 31, (S)-3-(6-Methoxy-2,3-dihydro-1H-pyrrolo[3,2-b]pyridin-1-yl)-N-methyl-3-(thiophen-2-yl)propan-1-amine] | ≥ 3000 | 500 to 1000
CCc1cnc2c(c1)N([C@H](CCNC)c1cccs1)CC2 [Example 32, (R)-3-(6-Ethyl-2,3-dihydro-1H-pyrrolo[3,2-b]pyridin-1-yl)-N-methyl-3-(thiophen-2-yl)propan-1-amine] | 100 to 500 | 100 to 500
CCc1cnc2c(c1)N([C@@H](CCNC)c1cccs1)CC2 [Example 33, (S)-3-(6-Ethyl-2,3-dihydro-1H-pyrrolo[3,2-b]pyridin-1-yl)-N-methyl-3-(thiophen-2-yl)propan-1-amine] | ≥ 3000 | 500 to 1000
CNCC[C@H](c1cccs1)N1CC(C)(C)c2nc(C)ccc21 [Example 34, (R)-N-methyl-3-(thiophen-2-yl)-3-(3,3,5-trimethyl-2,3-dihydro-1H-pyrrolo[3,2-b]pyridin-1-yl)propan-1-amine] | < 100 | > 1000
CNCC[C@@H](c1cccs1)N1CC(C)(C)c2nc(C)ccc21 [Example 35, (S)-N-methyl-3-(thiophen-2-yl)-3-(3,3,5-trimethyl-2,3-dihydro-1H-pyrrolo[3,2-b]pyridin-1-yl)propan-1-amine] | 100 to 500 | < 100

Structure (SMILES) | Ki [1] [nM] | Ki [2] [nM]
CNCC[C@H](c1sccc1Cl)N1CCc2ncccc21 [Example 36, (R)-3-(3-Chlorothiophen-2-yl)-3-(2,3-dihydro-1H-pyrrolo[3,2-b]pyridin-1-yl)-N-methylpropan-1-amine] | ≥ 3000 | 100 to 500
CNCC[C@@H](c1sccc1Cl)N1CCc2ncccc21 [Example 37, (S)-3-(3-Chlorothiophen-2-yl)-3-(2,3-dihydro-1H-pyrrolo[3,2-b]pyridin-1-yl)-N-methylpropan-1-amine] | ≥ 3000 | 100 to 500
CNCC[C@@H](c1cccs1)N1CCc2ncc(C(C)C)cc21 [Example 38, (S)-3-(6-Isopropyl-2,3-dihydro-1H-pyrrolo[3,2-b]pyridin-1-yl)-N-methyl-3-(thiophen-2-yl)propan-1-amine] | ≥ 3000 | > 1000
CNCC[C@H](c1cccs1)N1CCc2ncc(C(C)C)cc21 [Example 39, (R)-3-(6-Isopropyl-2,3-dihydro-1H-pyrrolo[3,2-b]pyridin-1-yl)-N-methyl-3-(thiophen-2-yl)propan-1-amine] | 100 to 500 | > 1000
CNCC[C@@H](c1ccc(Cl)s1)N1CCc2ncccc21 [Example 40, (S)-3-(5-Chlorothiophen-2-yl)-3-(2,3-dihydro-1H-pyrrolo[3,2-b]pyridin-1-yl)-N-methylpropan-1-amine] | 100 to 500 | 500 to 1000
CNCC[C@H](c1ccc(Cl)s1)N1CCc2ncccc21 [Example 41, (R)-3-(5-Chlorothiophen-2-yl)-3-(2,3-dihydro-1H-pyrrolo[3,2-b]pyridin-1-yl)-N-methylpropan-1-amine] | 500 to 3000 | > 1000
CNCC[C@H](c1cc(C)sc1C)N1CCc2ncccc21 [Example 42, (R)-3-(2,3-Dihydro-1H-pyrrolo[3,2-b]pyridin-1-yl)-3-(2,5-dimethylthiophen-3-yl)-N-methylpropan-1-amine] | ≥ 3000 | > 1000
CNCC[C@@H](c1cc(C)sc1C)N1CCc2ncccc21 [Example 43, (S)-3-(2,3-Dihydro-1H-pyrrolo[3,2-b]pyridin-1-yl)-3-(2,5-dimethylthiophen-3-yl)-N-methylpropan-1-amine] | ≥ 3000 | > 1000
CNCC[C@H](c1ccc(C)s1)N1CCc2ncccc21 [Example 44, (R)-3-(2,3-Dihydro-1H-pyrrolo[3,2-b]pyridin-1-yl)-N-methyl-3-(5-methylthiophen-2-yl)propan-1-amine] | 500 to 3000 | > 1000
CNCC[C@@H](c1ccc(C)s1)N1CCc2ncccc21 [Example 45, (S)-3-(2,3-Dihydro-1H-pyrrolo[3,2-b]pyridin-1-yl)-N-methyl-3-(5-methylthiophen-2-yl)propan-1-amine] | 500 to 3000 | > 1000
CNCC[C@H](c1ccsc1)N1CCc2nc(C(C)C)ccc21 [Example 46, (R)-3-(5-Isopropyl-2,3-dihydro-1H-pyrrolo[3,2-b]pyridin-1-yl)-N-methyl-3-(thiophen-3-yl)propan-1-amine] | 500 to 3000 | > 1000
CNCC[C@@H](c1ccsc1)N1CCc2nc(C(C)C)ccc21 [Example 47, (S)-3-(5-Isopropyl-2,3-dihydro-1H-pyrrolo[3,2-b]pyridin-1-yl)-N-methyl-3-(thiophen-3-yl)propan-1-amine] | 500 to 3000 | > 1000
CNCC[C@H](c1cccs1)N1CCc2nc(C(C)C)ccc21 [Example 48, (R)-3-(5-Isopropyl-2,3-dihydro-1H-pyrrolo[3,2-b]pyridin-1-yl)-N-methyl-3-(thiophen-2-yl)propan-1-amine] | 500 to 3000 | > 1000
CNCC[C@@H](c1cccs1)N1CCc2nc(C(C)C)ccc21 [Example 49, (S)-3-(5-Isopropyl-2,3-dihydro-1H-pyrrolo[3,2-b]pyridin-1-yl)-N-methyl-3-(thiophen-2-yl)propan-1-amine] | ≥ 3000 | > 1000
CNCC[C@@H](c1cscc1C)N1CCc2ncccc21 [Example 50, (S)-3-(2,3-Dihydro-1H-pyrrolo[3,2-b]pyridin-1-yl)-N-methyl-3-(4-methylthiophen-3-yl)propan-1-amine] | ≥ 3000 | 100 to 500
CNCC[C@H](c1cscc1C)N1CCc2ncccc21 [Example 51, (R)-3-(2,3-Dihydro-1H-pyrrolo[3,2-b]pyridin-1-yl)-N-methyl-3-(4-methylthiophen-3-yl)propan-1-amine] | ≥ 3000 | > 1000
